# Reference: ChEMBL document CHEMBL1201862, “PubChem BioAssay data set” (2004)
# Activity calls are given as the source filed them.
# How the values were obtained:
# Bcl-2-related protein A1 [1] = target: T1, Bcl-2-related protein A1 (Mus musculus, UniProt Q07440); test: small-molecule antagonists of Bfl-1/BH3 interaction – biochemical, TR-FRET, mouse Bfl-1, confirmation (AID 621);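 note: TR-FRET binding of GST-Bfl-1 to FITC-labelled Bid peptide via terbium antibody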
# T1 sequence (Q07440 whole entry): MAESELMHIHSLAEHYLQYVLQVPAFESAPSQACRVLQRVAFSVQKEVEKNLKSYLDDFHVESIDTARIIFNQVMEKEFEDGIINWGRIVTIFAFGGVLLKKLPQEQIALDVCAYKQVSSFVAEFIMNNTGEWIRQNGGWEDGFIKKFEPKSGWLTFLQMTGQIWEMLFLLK
# [2] = target: Glyceraldehyde-3-phosphate dehydrogenase (Homo sapiens, UniProt P04406)
# Bcl-2-related protein A1 [3] = target: T1, Bcl-2-related protein A1; test: Bfl-1 binding inhibitors, SAR follow-up, biochemical, fluorescence polarization (AID 1070)
# [4] = NIH-3T3 fibroblast cytotoxicity, dose response, cytotoxicity control, cell-based, fluorescence, Alamar Blue, secondary assay (AID 2327); assay type: functional;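 note: NIH-3T3 mouse fibroblasts cultured with fluconazole at 8 µg/mL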
# INS1 = test: INS-1E survival protection against cytokine death – cell-based, luminescence, retest, dose response (AID 449756); assay type: functional; conditions: Rattus norvegicus;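 note: cell death triggered by IL-1 beta plus TNF-alpha plus IFN-gamma mixture; protective hits raise ATP signal compared with cytokine alone wells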
# [5] = Trypanosoma cruzi growth suppression in host cells – NIH3T3 host cells, beta-gal luminescence, confirmation (AID 2044); assay type: functional, cell-based;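 note: intracellular parasites grown in NIH/3T3 mouse fibroblasts as host cells; luminescent beta-galactosidase reporter signal from transgenic T. cruzi replicating inside host cells; inhibitors lower the luminescence signal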
# [6] = NIH3T3 cell viability loss – ATP luminescence, mouse fibroblasts, counter-screen, dose response (AID 2010); assay type: functional, cell-based;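 note: cells exposed to compound for about 90 hours before reading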
# [7] = target: T2, Microphthalmia-associated transcription factor (Homo sapiens, UniProt O75030); test: reducers of TRPM1 reporter luminescence, concentration series – cell-based, SK-MEL-5, cherry-picked, set 3, MITF inhibitor project, dose response (AID 493073); assay type: functional;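 note: SK-MEL-5 melanoma cells with luciferase driven by the MITF target TRPM1 promoter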
# T2 sequence (O75030 whole entry): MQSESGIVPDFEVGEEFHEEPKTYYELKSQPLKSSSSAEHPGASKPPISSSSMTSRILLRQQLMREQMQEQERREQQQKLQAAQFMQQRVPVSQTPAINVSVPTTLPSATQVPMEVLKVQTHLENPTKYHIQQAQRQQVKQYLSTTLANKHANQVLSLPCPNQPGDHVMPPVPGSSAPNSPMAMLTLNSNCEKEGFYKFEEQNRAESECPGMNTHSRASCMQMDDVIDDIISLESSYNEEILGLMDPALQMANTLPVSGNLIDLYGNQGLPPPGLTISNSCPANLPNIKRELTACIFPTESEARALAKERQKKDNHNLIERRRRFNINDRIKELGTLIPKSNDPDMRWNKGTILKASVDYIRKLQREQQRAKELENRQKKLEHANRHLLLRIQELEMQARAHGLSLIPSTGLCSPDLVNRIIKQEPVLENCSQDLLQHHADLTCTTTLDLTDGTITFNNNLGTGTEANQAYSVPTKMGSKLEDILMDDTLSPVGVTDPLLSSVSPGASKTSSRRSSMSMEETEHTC
# [8] = microbe, parasite or virus in culture; assay type: functional; conditions: Mycobacterium tuberculosis
# Estrogen receptor beta = Estrogen receptor beta (Homo sapiens, UniProt Q92731); test: blockers of SRC-3 recruitment to ERβ – biochemical, ELISA, streptavidin-HRP readout, orthogonal assay, confirmation (AID 1060)
# [9] = target: Induced myeloid leukemia cell differentiation protein Mcl-1 (Homo sapiens, UniProt Q07820); test: blockers of MCL1 binding to BIM peptide – biochemical, fluorescence polarization, BIM-BH3 peptide, 1536-well, dose response (AID 2217)
# [10] = target: T3, Ubiquitin-conjugating enzyme E2 N (Homo sapiens, UniProt P61088); assay type: functional
# T3 sequence (P61088 whole entry): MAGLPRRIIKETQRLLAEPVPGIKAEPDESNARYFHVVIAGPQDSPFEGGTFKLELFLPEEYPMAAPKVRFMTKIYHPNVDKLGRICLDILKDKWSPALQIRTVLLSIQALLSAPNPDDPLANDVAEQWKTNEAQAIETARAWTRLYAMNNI
# Bcl-2-related protein A1 [11] = target: T1, Bcl-2-related protein A1; assay type: functional
# [12] = target: T4, Histone-lysine N-methyltransferase NSD2 (Homo sapiens, UniProt O96028); assay type: biochemical
# T4 sequence (O96028 whole entry): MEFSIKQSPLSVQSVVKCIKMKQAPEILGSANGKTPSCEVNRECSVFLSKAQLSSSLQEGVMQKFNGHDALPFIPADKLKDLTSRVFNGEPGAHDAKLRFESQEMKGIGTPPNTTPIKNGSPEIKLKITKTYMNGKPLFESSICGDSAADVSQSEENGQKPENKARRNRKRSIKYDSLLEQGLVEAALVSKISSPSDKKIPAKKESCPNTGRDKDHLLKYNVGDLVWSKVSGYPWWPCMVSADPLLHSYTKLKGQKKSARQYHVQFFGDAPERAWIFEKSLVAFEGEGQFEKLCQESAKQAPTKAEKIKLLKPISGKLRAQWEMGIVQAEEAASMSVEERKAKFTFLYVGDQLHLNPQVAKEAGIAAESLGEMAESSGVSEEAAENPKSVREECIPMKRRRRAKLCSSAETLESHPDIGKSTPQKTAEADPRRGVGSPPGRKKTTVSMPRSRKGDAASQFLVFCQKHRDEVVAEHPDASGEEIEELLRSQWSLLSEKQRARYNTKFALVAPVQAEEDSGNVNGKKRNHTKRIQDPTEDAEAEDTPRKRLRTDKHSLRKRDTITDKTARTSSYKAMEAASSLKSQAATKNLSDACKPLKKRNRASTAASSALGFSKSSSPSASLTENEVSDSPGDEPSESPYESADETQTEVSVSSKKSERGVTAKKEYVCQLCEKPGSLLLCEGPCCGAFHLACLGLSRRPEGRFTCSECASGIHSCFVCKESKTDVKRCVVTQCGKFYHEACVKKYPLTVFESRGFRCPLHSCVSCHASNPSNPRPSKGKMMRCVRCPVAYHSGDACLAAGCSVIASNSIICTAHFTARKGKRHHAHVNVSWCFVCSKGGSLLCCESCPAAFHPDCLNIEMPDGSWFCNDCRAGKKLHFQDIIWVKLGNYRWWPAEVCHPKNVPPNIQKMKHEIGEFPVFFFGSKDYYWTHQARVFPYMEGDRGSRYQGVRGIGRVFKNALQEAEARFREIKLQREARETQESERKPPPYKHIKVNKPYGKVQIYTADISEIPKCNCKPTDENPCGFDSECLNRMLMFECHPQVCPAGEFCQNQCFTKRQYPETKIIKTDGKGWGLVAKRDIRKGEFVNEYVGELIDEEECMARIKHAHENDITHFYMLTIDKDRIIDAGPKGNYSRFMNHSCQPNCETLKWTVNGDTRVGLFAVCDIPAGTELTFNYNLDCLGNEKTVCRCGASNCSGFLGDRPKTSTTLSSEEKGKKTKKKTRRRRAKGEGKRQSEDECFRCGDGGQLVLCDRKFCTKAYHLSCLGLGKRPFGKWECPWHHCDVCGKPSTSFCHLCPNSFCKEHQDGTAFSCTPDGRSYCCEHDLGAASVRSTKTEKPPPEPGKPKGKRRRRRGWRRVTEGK
# Bcl-2-like protein 1 = Bcl-2-like protein 1 (Homo sapiens, UniProt Q07817); test: blockers of BCLXL peptide binding – biochemical, fluorescence polarization, 1536-well, selectivity assay for MCL1 inhibitor project, dose response (AID 2218)
# [13] = target: T3, Ubiquitin-conjugating enzyme E2 N; assay type: functional; remark: listed apart in the source
# Large T antigen = Large T antigen (Simian virus 40, UniProt P03070); assay type: functional, Betapolyomavirus macacae;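 note: Confirmatory-stage PubChem screen for compounds that inhibit SV40 T antigen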
# [14] = target: T5, Dual specificity protein phosphatase 6 (Rattus norvegicus, UniProt Q64346); test: inhibition of rat DUSP6 enzyme activity – biochemical, in vitro, primary screen (AID 425)
# T5 sequence (Q64346 whole entry): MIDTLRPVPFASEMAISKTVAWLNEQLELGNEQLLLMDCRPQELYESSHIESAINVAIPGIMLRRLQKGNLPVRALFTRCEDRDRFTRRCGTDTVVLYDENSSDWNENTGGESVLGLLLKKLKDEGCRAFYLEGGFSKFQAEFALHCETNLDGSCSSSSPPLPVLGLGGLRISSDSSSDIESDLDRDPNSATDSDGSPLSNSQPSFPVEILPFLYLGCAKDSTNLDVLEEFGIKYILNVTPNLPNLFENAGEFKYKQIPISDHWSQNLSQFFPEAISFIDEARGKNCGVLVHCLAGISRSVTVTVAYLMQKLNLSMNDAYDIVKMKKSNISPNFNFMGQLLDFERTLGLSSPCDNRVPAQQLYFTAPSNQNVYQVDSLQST
# [15] = viability loss of HPDE-C7K cells – cell-based, fluorescence, HTS, primary screen (AID 431); assay type: functional; conditions: Homo sapiens
# [16] = HPDE-C7 pancreatic duct cell viability loss – fluorescence, HTS (AID 430); assay type: functional, cell-based; conditions: Homo sapiens
# Prothrombin = Prothrombin (Homo sapiens, UniProt P00734); test: Thrombin 1536 HTS Dose Response Confirmation. [Related pubchem assays: 1046 (Thrombin 1536 HTS; hits were confirmed in this assay)]; assay type: functional
# [17] = target: T6, Tyrosine-protein phosphatase non-receptor type 7 (Homo sapiens, UniProt P35236); test: HePTP tyrosine phosphatase activity blockers – biochemical, absorbance, leukemia target, primary screen (AID 521); assay type: functional
# T6 sequence (P35236 whole entry): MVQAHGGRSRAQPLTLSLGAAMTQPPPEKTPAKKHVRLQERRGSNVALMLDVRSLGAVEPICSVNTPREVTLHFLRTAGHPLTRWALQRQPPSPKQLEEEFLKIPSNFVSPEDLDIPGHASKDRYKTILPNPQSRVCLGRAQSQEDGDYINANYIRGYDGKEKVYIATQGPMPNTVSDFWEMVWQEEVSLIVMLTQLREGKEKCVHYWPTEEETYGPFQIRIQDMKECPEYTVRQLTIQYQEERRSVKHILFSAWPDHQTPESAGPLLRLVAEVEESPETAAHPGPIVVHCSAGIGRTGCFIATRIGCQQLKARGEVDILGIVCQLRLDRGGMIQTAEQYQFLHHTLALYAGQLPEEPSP
# [18] = Luminescence Cell-Based Dose Confirmation HTS to Identify Inhibitors of Polyadenylation.; assay type: functional
# [19] = target: T7, Mannose-6-phosphate isomerase (Homo sapiens, UniProt P34949); test: MPI inhibition at elevated mannose 6-phosphate – biochemical, fluorescence intensity, high mannose 6-phosphate, primary screen (AID 1220)
# T7 sequence (P34949 whole entry): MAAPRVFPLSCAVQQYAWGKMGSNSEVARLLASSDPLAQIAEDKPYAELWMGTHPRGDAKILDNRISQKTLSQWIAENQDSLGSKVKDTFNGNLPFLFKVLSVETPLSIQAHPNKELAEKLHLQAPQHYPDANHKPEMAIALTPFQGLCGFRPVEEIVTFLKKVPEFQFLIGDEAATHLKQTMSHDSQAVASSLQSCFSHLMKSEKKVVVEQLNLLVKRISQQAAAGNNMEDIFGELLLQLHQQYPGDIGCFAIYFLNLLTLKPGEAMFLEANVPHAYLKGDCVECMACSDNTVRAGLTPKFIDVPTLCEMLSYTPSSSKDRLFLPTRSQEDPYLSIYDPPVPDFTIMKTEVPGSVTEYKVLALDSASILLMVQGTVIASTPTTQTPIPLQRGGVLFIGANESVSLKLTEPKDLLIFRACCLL
# [20] = target: Glucose-6-phosphate 1-dehydrogenase (Homo sapiens, UniProt P11413); test: inhibition of Homo sapiens G6PD, dose series – biochemical, fluorescence, selectivity assay for P. falciparum G6PD inhibitor project, dose response (AID 504792); assay type: functional
# Genome polyprotein = Genome polyprotein (dengue virus type 2, UniProt P29990); test: flavivirus cap methylation enzyme inhibition – biochemical, confirmation dose response, primary screen (AID 588689); assay type: functional
# Albumin = Albumin (Bos taurus, UniProt P02769); test: Counterscreen for inhibitors of T-cell receptor (TCR)-CD3 interaction: Fluorescence-based biochemical high throughput dose response assay to identify inhibitors of T-cell receptor (TCR)-CD3 interaction using a TAMRA-labeled BSA probe.; assay type: functional
# Sequence of Albumin (P02769 whole entry): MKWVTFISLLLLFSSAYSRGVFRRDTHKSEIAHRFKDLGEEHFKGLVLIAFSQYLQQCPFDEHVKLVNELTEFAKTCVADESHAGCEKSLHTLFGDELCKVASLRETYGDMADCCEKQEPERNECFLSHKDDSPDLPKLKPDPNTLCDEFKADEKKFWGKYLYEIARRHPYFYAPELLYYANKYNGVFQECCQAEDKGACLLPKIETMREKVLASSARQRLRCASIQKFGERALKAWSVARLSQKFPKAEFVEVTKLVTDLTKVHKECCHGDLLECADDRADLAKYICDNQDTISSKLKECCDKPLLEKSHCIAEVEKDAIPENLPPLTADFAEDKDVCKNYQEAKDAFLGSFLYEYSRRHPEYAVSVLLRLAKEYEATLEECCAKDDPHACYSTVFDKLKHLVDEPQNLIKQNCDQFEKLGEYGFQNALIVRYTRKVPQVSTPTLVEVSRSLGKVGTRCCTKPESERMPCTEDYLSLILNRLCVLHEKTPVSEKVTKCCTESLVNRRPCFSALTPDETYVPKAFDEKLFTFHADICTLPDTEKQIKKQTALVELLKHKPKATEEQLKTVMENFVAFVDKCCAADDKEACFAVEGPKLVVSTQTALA
# Sequence of Bcl-2-like protein 1 (Q07817 whole entry): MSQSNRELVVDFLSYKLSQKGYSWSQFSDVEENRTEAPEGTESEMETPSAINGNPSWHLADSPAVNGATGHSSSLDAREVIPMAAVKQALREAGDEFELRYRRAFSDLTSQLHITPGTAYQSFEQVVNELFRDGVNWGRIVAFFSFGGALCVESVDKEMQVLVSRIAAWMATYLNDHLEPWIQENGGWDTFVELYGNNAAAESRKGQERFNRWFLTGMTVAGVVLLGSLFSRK
# Sequence of Glyceraldehyde-3-phosphate dehydrogenase (P04406 whole entry): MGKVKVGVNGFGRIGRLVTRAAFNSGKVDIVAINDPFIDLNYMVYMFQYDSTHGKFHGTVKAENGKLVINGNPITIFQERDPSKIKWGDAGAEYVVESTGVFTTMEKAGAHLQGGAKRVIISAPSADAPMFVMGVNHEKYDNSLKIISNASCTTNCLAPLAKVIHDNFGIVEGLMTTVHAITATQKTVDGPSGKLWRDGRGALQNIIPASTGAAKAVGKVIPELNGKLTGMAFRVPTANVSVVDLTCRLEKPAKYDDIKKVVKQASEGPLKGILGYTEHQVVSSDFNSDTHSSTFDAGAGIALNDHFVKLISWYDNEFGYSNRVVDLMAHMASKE
# Sequence of Induced myeloid leukemia cell differentiation protein Mcl-1 (Q07820 whole entry): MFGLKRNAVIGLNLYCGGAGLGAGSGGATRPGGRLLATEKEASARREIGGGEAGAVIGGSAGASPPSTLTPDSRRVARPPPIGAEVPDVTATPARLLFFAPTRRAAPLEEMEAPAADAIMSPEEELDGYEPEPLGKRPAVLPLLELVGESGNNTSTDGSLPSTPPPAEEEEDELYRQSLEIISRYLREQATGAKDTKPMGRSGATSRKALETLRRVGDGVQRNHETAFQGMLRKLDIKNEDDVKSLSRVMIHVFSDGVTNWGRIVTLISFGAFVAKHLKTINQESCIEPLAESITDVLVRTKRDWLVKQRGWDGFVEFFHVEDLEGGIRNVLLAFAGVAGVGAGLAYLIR
# Sequence of Glucose-6-phosphate 1-dehydrogenase (P11413 whole entry): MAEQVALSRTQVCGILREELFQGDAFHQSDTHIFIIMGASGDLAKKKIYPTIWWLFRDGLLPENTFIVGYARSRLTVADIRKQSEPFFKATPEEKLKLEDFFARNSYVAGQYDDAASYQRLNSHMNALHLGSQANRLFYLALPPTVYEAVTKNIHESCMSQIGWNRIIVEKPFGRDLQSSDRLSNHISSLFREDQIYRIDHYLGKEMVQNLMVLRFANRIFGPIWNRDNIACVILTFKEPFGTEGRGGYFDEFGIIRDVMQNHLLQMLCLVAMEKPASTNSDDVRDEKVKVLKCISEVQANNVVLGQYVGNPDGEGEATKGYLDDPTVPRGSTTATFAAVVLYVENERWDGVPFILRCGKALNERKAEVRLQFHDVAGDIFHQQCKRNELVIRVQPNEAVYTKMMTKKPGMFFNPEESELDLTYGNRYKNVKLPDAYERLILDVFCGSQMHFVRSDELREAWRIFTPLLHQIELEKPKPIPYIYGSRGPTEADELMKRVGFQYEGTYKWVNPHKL
# Sequence of Genome polyprotein (P29990 2492-3391 limits assumed): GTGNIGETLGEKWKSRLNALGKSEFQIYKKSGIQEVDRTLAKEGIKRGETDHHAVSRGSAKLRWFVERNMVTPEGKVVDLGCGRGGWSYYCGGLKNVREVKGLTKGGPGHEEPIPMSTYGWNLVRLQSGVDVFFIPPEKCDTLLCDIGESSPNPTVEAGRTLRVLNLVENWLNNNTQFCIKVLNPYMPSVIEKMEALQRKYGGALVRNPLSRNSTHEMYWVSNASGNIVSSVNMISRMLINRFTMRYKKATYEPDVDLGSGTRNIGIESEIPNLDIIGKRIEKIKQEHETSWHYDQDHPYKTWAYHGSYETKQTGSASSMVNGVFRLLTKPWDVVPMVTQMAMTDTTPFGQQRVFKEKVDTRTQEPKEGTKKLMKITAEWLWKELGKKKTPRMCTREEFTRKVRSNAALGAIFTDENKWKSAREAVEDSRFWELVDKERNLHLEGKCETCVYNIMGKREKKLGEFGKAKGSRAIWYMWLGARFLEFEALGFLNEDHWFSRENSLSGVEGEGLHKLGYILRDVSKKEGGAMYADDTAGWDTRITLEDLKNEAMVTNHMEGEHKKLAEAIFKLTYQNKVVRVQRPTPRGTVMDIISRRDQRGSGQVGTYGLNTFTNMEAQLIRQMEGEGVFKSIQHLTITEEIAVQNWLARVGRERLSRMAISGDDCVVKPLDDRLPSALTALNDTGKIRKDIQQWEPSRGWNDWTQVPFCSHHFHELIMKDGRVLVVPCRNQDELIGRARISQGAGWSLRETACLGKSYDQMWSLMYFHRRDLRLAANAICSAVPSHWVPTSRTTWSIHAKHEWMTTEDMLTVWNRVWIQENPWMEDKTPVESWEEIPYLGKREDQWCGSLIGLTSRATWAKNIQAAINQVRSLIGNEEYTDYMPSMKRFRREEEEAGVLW
# Sequence of Estrogen receptor beta (Q92731 whole entry): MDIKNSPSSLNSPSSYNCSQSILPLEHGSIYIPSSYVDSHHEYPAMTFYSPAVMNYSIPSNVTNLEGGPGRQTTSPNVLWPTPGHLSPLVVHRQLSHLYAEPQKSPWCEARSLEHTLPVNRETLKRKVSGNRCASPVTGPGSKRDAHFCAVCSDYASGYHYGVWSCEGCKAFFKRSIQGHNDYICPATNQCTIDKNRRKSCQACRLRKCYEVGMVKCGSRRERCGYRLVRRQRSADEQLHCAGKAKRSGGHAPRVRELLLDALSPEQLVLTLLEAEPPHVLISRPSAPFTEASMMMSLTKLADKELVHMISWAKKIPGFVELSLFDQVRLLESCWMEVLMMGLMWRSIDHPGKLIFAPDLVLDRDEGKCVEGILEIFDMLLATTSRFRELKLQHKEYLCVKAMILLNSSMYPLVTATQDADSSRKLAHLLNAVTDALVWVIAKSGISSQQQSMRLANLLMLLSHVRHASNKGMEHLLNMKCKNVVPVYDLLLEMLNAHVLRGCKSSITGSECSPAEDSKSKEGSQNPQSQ
# Sequence of Large T antigen (P03070 whole entry): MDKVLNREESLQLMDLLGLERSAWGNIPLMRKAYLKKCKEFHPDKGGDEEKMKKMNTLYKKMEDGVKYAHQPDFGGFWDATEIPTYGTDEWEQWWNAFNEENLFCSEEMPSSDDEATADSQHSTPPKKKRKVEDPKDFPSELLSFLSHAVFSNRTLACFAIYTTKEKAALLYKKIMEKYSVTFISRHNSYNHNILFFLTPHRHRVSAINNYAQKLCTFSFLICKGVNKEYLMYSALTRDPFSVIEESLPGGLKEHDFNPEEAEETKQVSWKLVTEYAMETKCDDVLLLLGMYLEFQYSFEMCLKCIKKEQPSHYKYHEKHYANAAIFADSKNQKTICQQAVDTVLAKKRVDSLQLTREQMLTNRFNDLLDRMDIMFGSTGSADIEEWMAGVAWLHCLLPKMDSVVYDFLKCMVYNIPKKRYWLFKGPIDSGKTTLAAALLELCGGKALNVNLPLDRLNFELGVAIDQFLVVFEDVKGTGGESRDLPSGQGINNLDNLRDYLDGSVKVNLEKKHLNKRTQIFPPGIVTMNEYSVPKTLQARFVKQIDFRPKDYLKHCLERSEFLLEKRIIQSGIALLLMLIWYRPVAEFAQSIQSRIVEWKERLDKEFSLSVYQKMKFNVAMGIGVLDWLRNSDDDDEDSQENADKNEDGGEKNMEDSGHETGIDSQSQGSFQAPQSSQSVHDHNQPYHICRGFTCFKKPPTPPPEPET
smiles,measurement,setting,value
CCCCN1CCN(C2=C(Cl)C(=O)N(c3ccc(Cl)c(Cl)c3)C2=O)CC1,IC50,Bcl-2-related protein A1 [1],3.28 µM (active)
same,IC50,[2],> 100 µM (not active)
same,IC50,Bcl-2-related protein A1 [3],10.5 µM (active)
CCOc1ccc(-[n+]2c(-c3ccc(Br)cc3)cn3c2CCCCC3)cc1,EC50,[4],> 160 µM (inactive)
same,EC50,cells,0.073 µM (active)
same,AC50,INS1,1.07 µM (active)
same,EC50,[5],< 0.1 µM (active)
same,EC50,[6],> 60 µM (not active)
same,AC50,[7],3.87 µM (active)
same,CC50,[8],21.2 µM (active)
Cc1ccc(Cl)c(N2C(=O)C(Cl)=C(N3CCOCC3)C2=O)c1Cl,IC50,Bcl-2-related protein A1 [1],> 100 µM (not active)
same,IC50,[2],> 10 µM (inconclusive)
same,IC50,Bcl-2-related protein A1 [3],> 100 µM (not active)
c1coc(-c2nc(-c3ccco3)c(-c3ccco3)nc2-c2ccco2)c1,IC50,Estrogen receptor beta,> 50 µM (not active)
same,IC50,[9],> 1.34 µM (active)
same,IC50,[10],3.79 µM (active)
same,IC50,Bcl-2-related protein A1 [11],0.36 µM (active)
same,AC50,[12],> 20 µM (inactive)
same,IC50,Bcl-2-like protein 1,> 109 µM (not active)
same,IC50,[13],8.49 µM (active)
same,IC50,Large T antigen,76.4 µM (active)
same,IC50,[14],> 10 µM (not active)
Cc1ccc(C(=O)Nc2cccc(C(=O)NCc3ccccc3)c2)o1,EC50,[15],12.4 µM (active)
same,EC50,[16],16.6 µM (active)
CCc1nc(O)c2ccsc2n1,IC50,Prothrombin,> 50 µM (not active)
COCCNc1nnc(SCC(=O)c2c[nH]c3ccccc23)s1,IC50,Prothrombin,> 50 µM (not active)
Clc1ccc(SCCOCCN2CCc3ccccc3C2)cc1,EC50,cells,0.081 µM (active)
same,EC50,[5],< 0.1 µM (active)
same,EC50,[6],> 60 µM (not active)
Cc1ccc2nc(-c3cccc(NC(=O)c4ccc5c(c4)OCCO5)c3)oc2c1,EC50,[15],6.12 µM (active)
same,EC50,[16],6.12 µM (active)
Cc1ccc(OCC(=O)Nc2ccc(-c3nnc(-c4ccco4)o3)cc2)cc1,IC50,[17],> 100 µM (not active)
Cn1c(=O)oc2cc(S(=O)(=O)N3CCCC(C(=O)N4CCn5c4nc4ccccc45)C3)ccc21 (stereo not given),IC50,[17],> 100 µM (not active)
O=C(COC(=O)Cc1ccc(S(=O)(=O)N2CCOCC2)s1)NCc1ccccc1,EC50,[18],39.8 µM (active)
O=C(CCc1ccc(S(=O)(=O)N2CCOCC2)cc1)N/N=C/c1ccc(O)c(O)c1O,IC50,[19],16.4 µM (active)
same,IC50,[9],2.33 µM (active)
same,IC50,[20],48.7 µM (inactive)
same,IC50,Bcl-2-like protein 1,> 109 µM (not active)
same,IC50,Genome polyprotein,51.3 µM (active)
same,IC50,Albumin,> 94.1 µM (inactive)
